Among the data in the Deep4Chem optical property database are emission maximum values, retold here.

The nature of this data set: solvent given as SMILES.

As for `CCCCC(CC)CN1C(=O)c2cccc3c(C#Cc4ccc(N(c5ccccc5)c5ccc(C#Cc6ccc7c8c(cccc68)C(=O)N(CC(CC)CCCC)C7=O)cc5)cc4)ccc(c23)C1=O` (stereo unspecified), the emission maximum by setting is: (in C1CCCCC1) 472 nm; (in C1CCOC1) 631 nm; (in CC#N) 549 nm; (in Cc1ccccc1) 514 nm; (in ClC(Cl)Cl) 587 nm.
For the compound `CC(C)(C)c1ccc(-c2cc(-c3ccc(-c4cc(-c5ccc(C(C)(C)C)cc5)c(C(=O)NCc5cccs5)s4)s3)sc2C(=O)NCc2cccs2)cc1`, the emission maximum (in ClCCl) is on record as 450 nm.
On to `C(#Cc1ccncc1)C(C#Cc1ccncc1)=Cc1ccc(C=C(C#Cc2ccncc2)C#Cc2ccncc2)cc1`, for which the emission maximum (in ClC(Cl)Cl) stood at 472 nm.
Take `C[N+]1=C(/C=C/C=C2/N(CCC[N+](C)(C)C)c3ccc(S(=O)(=O)[O-])cc3C2(C)C)C(C)(C)c2ccccc21`: under “in CS(C)=O”, the emission maximum turned out to be 570 nm.
The compound `O=[N+]([O-])c1ccc(/C2=C3N=C(C(c4ccccc4)=C/3c3ccccc3)/C(c3ccc([N+](=O)[O-])cc3)=c3\[nH]/c(c(-c4ccccc4)c3-c3ccccc3)=C(/c3ccc([N+](=O)[O-])cc3)C3=N/C(=C(/c4ccc([N+](=O)[O-])cc4)c4[nH]c2c(-c2ccccc2)c4-c2ccccc2)C(c2ccccc2)=C3c2ccccc2)cc1` displayed an emission maximum (in ClCCl) of 745 nm.
`COC(=O)C(CCCCNC(=O)CCNc1cccc2ccccc12)NC(C)=O` (stereo unspecified): the emission maximum (in CCO) is listed as 417 nm.
For the compound `CN(C)c1ccc(/C=C2\OC(=O)c3cc(N)ccc32)cc1`, the emission maximum (in CC#N) was 561.8 nm; the emission maximum (in CC(C)=O) came to 537.06 nm; the emission maximum (in CC(C)CO) is reported as 542.89 nm; the emission maximum (in CC(C)O) is recorded as 550.06 nm; the emission maximum (in CCCO) was determined as 559.91 nm; the emission maximum (in CCO) is on record as 568.18 nm. In addition, the emission maximum (in CCOC(C)=O) came to 520.83 nm, the emission maximum (in CCOCC) is recorded as 444.84 nm and the emission maximum (in CO) is reported as 568.18 nm.
Regarding `COC1=[N+]2C(=C(c3ccccc3)c3ccc(OC)n3[B-]2(F)F)C=C1SC#N`, the emission maximum stood at 539 nm (in CC#N); 542 nm (in CCCCCC); 543 nm (in CCOC(C)=O); 540 nm (in CO); 543 nm (in ClCCl).
The compound `N#Cc1c(-n2c3ccc(Cl)cc3c3cc(Cl)ccc32)c(C#N)c(-n2c3ccc(Cl)cc3c3cc(Cl)ccc32)c(-n2c3ccc(Cl)cc3c3cc(Cl)ccc32)c1-n1c2ccc(Cl)cc2c2cc(Cl)ccc21` had an emission maximum (in Cc1ccccc1) of 518 nm.
For the compound `COc1cc(/C=C/c2nc3ccccc3o2)c(OC)cc1/C=C/c1nc(C)nc(C)n1`, the emission maximum reads like this: (in C1CCOC1) 483 nm; (in CC#N) 495 nm; (in ClC(Cl)Cl) 490 nm; (in ClCCl) 492 nm.
Compound `CC1(C)Nc2cc(Cl)ccc2-c2[nH]c3ccccc3c(=O)c21` showed an emission maximum (in C1CCOC1) of 474 nm; an emission maximum (in CC#N) of 496 nm; an emission maximum (in CCCCO) of 505 nm; an emission maximum (in CCCO) of 505 nm; an emission maximum (in CCO) of 506 nm; an emission maximum (in CCOC(C)=O) of 482 nm. The emission maximum runs as follows: (in CN(C)C=O) 493 nm; (in CO) 513 nm; (in CS(C)=O) 494 nm; (in Cc1ccccc1) 460 nm; (in ClC(Cl)(Cl)Cl) 451 nm; (in ClCCl) 473 nm. Besides, the emission maximum stood at 536 nm (in O) and 462 nm (in c1ccccc1).
Compound `C[C@]12SC(=O)C=C1c1nc(-c3ccccc3)[nH]c1C1=CC(=O)S[C@@]12C` had an emission maximum (in CC#N) of 513 nm.
In the case of `C/C(=C\c1ccc(C)cc1)c1nc2ccccc2o1`, the emission maximum (in C1CCCCC1) turned out to be 370 nm and the emission maximum (in CO) is on record as 380 nm.
For `c1ccc(/C(=C(\c2ccccc2)c2cc(-c3ccc(-c4ccccc4)cc3)ccc2-c2ccc(-c3ccccc3)cc2)c2cc(-c3ccc(-c4ccccc4)cc3)ccc2-c2ccc(-c3ccccc3)cc2)cc1`, the emission maximum (in C1CCOC1) is 496 nm.
In turn, `N#Cc1ccc(C=C(c2ccccc2)c2ccccc2)cc1` gave an emission maximum (in C1CCOC1) of 390 nm.
In the case of `COc1ccc2cc(C#Cc3ccc([N+](=O)[O-])cc3)ccc2c1`, the emission maximum stood at 533 nm (in C1CCOC1), 592 nm (in ClC(Cl)Cl) and 635 nm (in ClCCl).
As for `CCOC(=O)c1sc2nc3c(c(C#N)c2c1N)CCCC3`, the emission maximum (in c1ccccc1) is 545 nm.
For the compound `C[Si](C)(C)c1ccc(-c2nc3ccccc3n2-c2ccccc2)cc1`, under “in ClCCl”, the emission maximum was 358 nm.
The compound `CC/[NH+]=c1\cc2oc3cc(NCCC(=O)NC(C)C(=O)OC)c4ccccc4c3nc-2cc1C` (stereo unspecified) came in with an emission maximum (in CCO) of 644 nm.
`CN(C)c1ccc(C=C/C=C/C=C/c2ccc(C#N)cc2)cc1`: the emission maximum by setting is: (in C1CCOC1) 609 nm; (in CC#N) 658 nm; (in CCCC#N) 640 nm; (in CCCCCC) 467 nm; (in CCCCOCCCC) 541 nm; (in CCO) 637 nm. For the same compound, the emission maximum (in CCOCC) was 567 nm.
Turning to `CC(C)c1cc(C(C)C)c(B2c3cc(N4c5ccccc5C(C)(C)c5ccccc54)ccc3N(c3ccccc3)c3ccc(N4c5ccccc5C(C)(C)c5ccccc54)cc32)c(C(C)C)c1`, the emission maximum is 485.71 nm (in C1CCOC1); 481.97 nm (in CCOC(C)=O); 469.39 nm (in Cc1ccccc1); 494.56 nm (in ClCCl); 469 nm (in c1cc(-c2cccc(-n3c4ccccc4c4ccccc43)c2)cc(-n2c3ccccc3c3ccccc32)c1).
In the case of `[NH3+]C(Cc1ccc(O)c(O)c1)C(=O)[O-]` (stereo unspecified), the emission maximum (in O) turned out to be 318 nm.
For `Cc1cccc(C2=Cc3ccc4ccccc4[n+]3[B-](F)(F)O2)c1`, the emission maximum (in ClC(Cl)Cl) is on record as 440 nm.
In the case of `CCCCCCn1c(=O)c2c3[nH]c4ccccc4oc3c3c(=O)n(CCCCCC)c(=O)c3c2c1=O`, where the note is “in ClCCl”, the emission maximum was 560 nm.
Compound `CC(C)Nc1cc2c(cc1F)c(=O)c1cc(F)c(NC(C)C)cc1n2C` had an emission maximum (in CCO) of 421 nm.
In the case of `CCCCc1cc2cccc[n+]2[b-]2c(-c3cccc4[b-]3[n+]3ccccc3cc4CCCC)cccc21`, the emission maximum (in C1CCCCC1) was 451 nm.
Where the note is “in ClCCl”, `CC1=C(I)C(C)=[N+]2C1=C(c1c(-c3ccccn3)nc3ccccn13)c1c(C)cc(C)n1[B-]2(F)F` returned an emission maximum of 558 nm.
For the setting “in O”, `O=S(=O)([O-])c1cc(S(=O)(=O)Cl)ccc1C1=c2cc3c4c(c2Oc2c1cc1c5c2CCCN5CCC1)CCC[N+]=4CCC3` returned an emission maximum of 615 nm.
As to `CCCCCCOc1ccc(C#Cc2ccc(C#Cc3ccc(OCCCCCC)c(OCCCCCC)c3)c3nsnc23)cc1OCCCCCC`, the emission maximum reads like this: (in C1CCCCC1) 504 nm; (in CCOC(C)=O) 550 nm; (in CN(C)C=O) 600 nm; (in COc1ccccc1) 561 nm; (in Cc1ccccc1) 537 nm; (in ClC(Cl)Cl) 580 nm. For the same compound, the emission maximum reads like this: (in ClCCCl) 581 nm; (in ClCCl) 577 nm.
As for `CN(C)c1ccc(-c2ccc(/C=C/c3ccncn3)cc2)cc1`, where the note is “in ClCCl”, the emission maximum is reported as 570 nm.
`CCCC(=O)c1c2c(c(C(=O)CCC)c3c1OC(CC(=O)OC)(C(=O)O)O3)OCO2`: the emission maximum stood at 542 nm (in CC#N); 603 nm (in CCO); 614 nm (in CO); 530 nm (in ClCCl); 637 nm (in O).
Consider `c1ccc(C2=C(c3ccccc3)c3cccc4c3c(cc3nc5cc(-c6ccc(N(c7ccccc7)c7ccccc7)cc6)c(-c6ccc(N(c7ccccc7)c7ccccc7)cc6)cc5nc34)O2)cc1`, for which the emission maximum (in ClCCl) is 568 nm.
For the compound `CCC(CC)n1c2ccccc2c2cc3c(cc21)c1ccccc1n3C(CC)CC`, the emission maximum (in ClC(Cl)Cl) is given as 423 nm.
Compound `CN(C)c1ccc(C#Cc2cc(C#Cc3ccc(C(F)(F)F)cc3)c3ccc4c(C#Cc5ccc(N(C)C)cc5)cc(C#Cc5ccc(C(F)(F)F)cc5)c5ccc2c3c45)cc1` displayed an emission maximum (in ClCCl) of 605 nm.
Regarding `CCN(CC)c1ccc(-c2ccc(-c3nc4ccccc4c(=O)[nH]3)s2)cc1`, the emission maximum reads like this: (in CC#N) 541 nm; (in Cc1ccccc1) 490 nm.
On to `CCCCC1(c2ccccc2)Nc2c(-c3ccc(OC)cc3)ccc(-c3ccc(OC)cc3)c2N=C1c1ccccc1` (stereo unspecified), for which the emission maximum is, setting by setting: (in C1CCOC1) 547 nm; (in CC#N) 556 nm; (in CCCCCC) 517 nm; (in CN(C)C=O) 568 nm; (in Cc1ccccc1) 525 nm; (in ClC(Cl)Cl) 537 nm.
`CCC1=C(C)C2=C(c3c4ccccc4cc4ccccc34)c3c(C)c(CC)c(C)n3[B-](F)(F)[N+]2=C1C`: the emission maximum reads like this: (in CC#N) 537 nm; (in CCCCCC) 539 nm; (in CCO) 539 nm; (in CN(C)C=O) 541 nm; (in Cc1ccccc1) 544 nm; (in ClCCl) 543 nm.
Where the note is “in CCCCCC”, `CC(C)[Si](C#Cc1c2ccccc2c(C#C[Si](C(C)C)(C(C)C)C(C)C)c2nc3c(nc12)C1c2ccccc2C3c2ccccc21)(C(C)C)C(C)C` displayed an emission maximum of 464 nm.
For `CC(C)(C)OC(=O)NCC(=O)OCc1ccc2c3cccc4cccc(c5cccc1c52)c43`, where the note is “in CCO”, the emission maximum was found to be 446 nm.
`c1ccc2c3c(ccc2c1)-c1cccc2cc4ccccc4c-3c12`: the emission maximum (in CCCCCCC) is given as 610 nm.
With `N#Cc1cccc2ccccc12`, the emission maximum (in Cc1ccccc1) is reported as 341.02 nm.
As for `Cc1cc2ccc(-c3cccc4cccc(-c5ccc6cc(C)c(=O)oc6c5)c34)cc2oc1=O`, the emission maximum is, setting by setting: (in C1CCCCC1) 392 nm; (in C1COCCO1) 399 nm; (in CC#N) 420 nm; (in CCO) 442 nm; (in CCOC(C)=O) 403 nm; (in CN(C)C=O) 417 nm. In addition, the emission maximum (in CO) came out at 452 nm and the emission maximum (in c1ccccc1) amounted to 398 nm.
